Where two headings read alike, the source gives them in different places.
Tests used:
Experiment in all cases: MIC, agar incorporation method
[1] = test system: S. pneumoniae AB 23; assay type: cell-based, Streptococcus pneumoniae; conditions: Streptococcus pneumoniae, AB23
[2] = test system: S. pneumoniae AB-2; assay type: cell-based, Streptococcus pneumoniae; conditions: Streptococcus pneumoniae, AB2
[3] = test system: E. faecium 6A (VRE); assay type: cell-based, Enterococcus faecium; conditions: Enterococcus faecium
[4] = test system: E. durans 581; assay type: cell-based; conditions: Enterococcus durans
[5] = test system: E. faecalis 21777; assay type: cell-based; conditions: Enterococcus faecalis
[6] = test system: E. faecium 398(VRE); assay type: cell-based, Enterococcus faecium; conditions: Enterococcus faecium
[7] = test system: S. pneumoniae CS1221; assay type: cell-based, Streptococcus pneumoniae; conditions: Streptococcus pneumoniae
[8] = test system: Serratia marcescens 12999; assay type: cell-based
[9] = test system: S. epidermidis 358; assay type: cell-based, Staphylococcus epidermidis; conditions: Staphylococcus epidermidis
[10] = test system: S. pneumoniae AB 29; assay type: cell-based, Streptococcus pneumoniae; conditions: Streptococcus pneumoniae, AB29
[11] = test system: S. pneumoniae AB 25; assay type: cell-based, Streptococcus pneumoniae; conditions: Streptococcus pneumoniae, AB25
[12] = test system: S. aureus (MRSA 33) Cipro R; assay type: cell-based, Staphylococcus aureus; conditions: Staphylococcus aureus
[13] = test system: Moraxella M1; assay type: cell-based
[14] = test system: S. aureus (MRSA) 15187; assay type: cell-based, Staphylococcus aureus; conditions: Staphylococcus aureus
[15] = test system: S. pneumoniae AB4; assay type: cell-based, Streptococcus pneumoniae; conditions: Streptococcus pneumoniae
[16] = test system: S. pneumoniae ATCC 6303; assay type: cell-based, Streptococcus pneumoniae; conditions: Streptococcus pneumoniae, ATCC6303
[17] = test system: S. epidermidis 823; assay type: cell-based, Staphylococcus epidermidis; conditions: Staphylococcus epidermidis
[18] = test system: S. pyogenes 19615; assay type: cell-based, Streptococcus pyogenes; conditions: Streptococcus pyogenes
[19] = test system: S. epidermidis ATCC 12228; assay type: cell-based, Staphylococcus epidermidis; conditions: Staphylococcus epidermidis, ATCC12228
[20] = test system: S. pneumoniae AB 22; assay type: cell-based, Streptococcus pneumoniae; conditions: Streptococcus pneumoniae, AB22
[21] = test system: E. faecalis 29212; assay type: cell-based; conditions: Enterococcus faecalis
[22] = test system: S. pneumoniae AB 30; assay type: cell-based, Streptococcus pneumoniae; conditions: Streptococcus pneumoniae, AB30
[23] = test system: S. pyogenes 25147; assay type: cell-based, Streptococcus pyogenes; conditions: Streptococcus pyogenes
[24] = test system: S. pneumoniae AB 10; assay type: cell-based, Streptococcus pneumoniae; conditions: Streptococcus pneumoniae, AB10
[25] = test system: S. haemo ATCC 29970; assay type: cell-based
[26] = test system: S. pneumoniae AB 16; assay type: cell-based, Streptococcus pneumoniae; conditions: Streptococcus pneumoniae, AB16
[27] = test system: S. pneumoniae AB 21; assay type: cell-based, Streptococcus pneumoniae; conditions: Streptococcus pneumoniae, AB21
[28] = test system: Acinetobacter 9956; assay type: cell-based
[29] = test system: S. aureus ATCC 25923; assay type: cell-based, Staphylococcus aureus; conditions: Staphylococcus aureus, ATCC25923
[30] = test system: E. coli 25922; assay type: cell-based; conditions: Escherichia coli
[31] = test system: K. oxytoca 49131; assay type: cell-based; conditions: Klebsiella oxytoca
[32] = test system: S. pneumoniae AB 14; assay type: cell-based, Streptococcus pneumoniae; conditions: Streptococcus pneumoniae, AB14
[33] = test system: S. pneumoniae AB 17; assay type: cell-based, Streptococcus pneumoniae; conditions: Streptococcus pneumoniae, AB17
[34] = test system: S. pyogenes 20361; assay type: cell-based, Streptococcus pyogenes; conditions: Streptococcus pyogenes
[35] = test system: P. aeruginosa ATCC 27853; assay type: cell-based; conditions: Pseudomonas aeruginosa, ATCC27853
[36] = test system: S. aureus (MRSA) 21299; assay type: cell-based, Staphylococcus aureus; conditions: Staphylococcus aureus
[37] = S. No. 21, E. faecium 6A (VRE), read-out: MIC
[38] = S. No. 24, E. durans 581, read-out: MIC
[39] = S. No. 18, E. faecalis 21777, read-out: MIC
[40] = S. No. 22, E. faecium 398(VRE), read-out: MIC
[41] = S. No. 34, S. pneumoniae CS1221, read-out: MIC
[42] = S. No. 29, Serratia marcescens 12999, read-out: MIC
[43] = S. No. 14, S. epidermidis 358, read-out: MIC
[44] = S. No. 7, S. aureus (MRSA 33) Cipro R, read-out: MIC
[45] = S. No. 58, Moraxella M1, read-out: MIC
[46] = S. No. 4, S. aureus (MRSA) 15187, read-out: MIC
[47] = S. No. 33, S. pneumoniae AB4, read-out: MIC
[48] = S. No. 17, E. faecalis 29212, read-out: MIC
[49] = S. No. 35, S. pneumoniae AB 10, read-out: MIC
[50] = S. No. 30, Acinetobacter 9956, read-out: MIC
[51] = S. No. 1, organism cell empty, read-out: MIC
[52] = S. No. 25, E. coli 25922, read-out: MIC
[53] = S. No. 27, K. oxytoca 49131, read-out: MIC
[54] = S. No. 40, S. pneumoniae AB 17, read-out: MIC
[55] = S. No. 53, S. pyogenes 20361, read-out: MIC
[56] = S. No. 28, P. aeruginosa ATCC 27853, read-out: MIC
[57] = S. No. 5, S. aureus (MRSA) 21299, read-out: MIC

Measured: MIC

CC(=O)NC[C@H]1CN(c2ccc(N3CCOCC3)c(F)c2)C(=O)O1 [Linezolid, reference compound]
1 µg/mL: [1] | [4]; 581 | [6]; VRE | [9]; 358 | [10] | [11] | [12]; MRSA | [16] | [18]; 19615 | [20] | [22] | [23]; 25147 | [26] | [27] | [32] | [33] | [34]; 20361 | [36]; MRSA
2 µg/mL: [3]; VRE | [5]; 21777 | [14]; MRSA | [21]; 29212 | [29]
< 0.5 µg/mL: [17]; 823 | [19] | [25]
4 µg/mL: [13]; Moraxella, M1
0.25 µg/mL: [2] | [7]; CS1221 | [15]; AB4 | [24]
> 16 µg/mL: [8]; Serratia marcescens, 12999 | [28]; Acinetobacter, 9956 | [30]; 25922 | [31]; 49131 | [35]

CC(=O)NC[C@H]1CN(c2ccc(N3CCN(c4ccc([N+](=O)[O-])s4)CC3)c(F)c2)C(=O)O1 [Compound No. 1, (S)—N-[[3-[3-Fluoro-4-[4-(5-nitro-2-thienyl)-1-piperazinyl]phenyl]-2-oxo-5-oxazolidinyl]methyl]acetamide]
1 µg/mL: [13]; [45]
0.06 µg/mL: [7]; [41] | [15]; [47] | [24]; [49] | [33]; [54] | [34]; [55]
> 16 µg/mL: [8]; [42] | [28]; [50] | [30]; [52] | [31]; [53] | [35]; [56]
0.125 µg/mL: [1] | [2] | [10] | [11] | [16] | [17]; 823 | [18]; 19615 | [19] | [20] | [22] | [23]; 25147 | [25] | [26] | [27] | [32]
0.25 µg/mL: [3]; [37] | [4]; [38] | [5]; [39] | [6]; [40] | [9]; [43] | [12]; [44] | [14]; [46] | [21]; [48] | [29]; [51] | [36]; [57]

CC(=O)NC[C@H]1CN(c2ccc(N3CCN(c4ccc(C=O)o4)CC3)c(F)c2)C(=O)O1 [Compound No. 3, (S)—N-[[3-[3-Fluoro-4-[4-(5-formyl-2-furyl)-1-piperazinyl]phenyl]-2-oxo-5-oxazolidinyl]methyl]acetamide]
2 µg/mL: [13]; [45]
0.25 µg/mL: [1]; S. No. 43, S. pneumoniae AB 23, read-out: MIC | [7]; [41] | [10]; S. No. 46, S. pneumoniae AB 29, read-out: MIC | [11]; S. No. 45, S. pneumoniae AB 25, read-out: MIC | [15]; [47] | [16]; S. No. 50, S. pneumoniae ATCC 6303, read-out: MIC | [18]; S. No. 51, S. pyogenes 19615, read-out: MIC | [19]; S. No. 10, S. epidermidis ATCC 12228, read-out: MIC | [20]; S. No. 42, S. pneumoniae AB 22, read-out: MIC | [22]; S. No. 47, S. pneumoniae AB 30, read-out: MIC | [23]; S. No. 52, S. pyogenes 25147, read-out: MIC | [25]; S. No. 15, S. haemo ATCC 29970, read-out: MIC | [26]; S. No. 39, S. pneumoniae AB 16, read-out: MIC | [27]; S. No. 41, S. pneumoniae AB 21, read-out: MIC | [34]; [55]
0.5 µg/mL: [3]; [37] | [4]; [38] | [5]; [39] | [6]; [40] | [9]; [43] | [12]; [44] | [17]; S. No. 12, S. epidermidis 823, read-out: MIC | [21]; [48] | [36]; [57]
1 µg/mL: [14]; [46] | [29]; [51]
> 16 µg/mL: [8]; [42] | [28]; [50] | [30]; [52] | [31]; [53] | [35]; [56]
< 0.125 µg/mL: [2]; S. No. 31, S. pneumoniae AB-2, read-out: MIC | [24]; [49] | [32]; S. No. 37, S. pneumoniae AB 14, read-out: MIC | [33]; [54]
